Test results: US20230038480A1, “SYSTEM FOR PRODUCITON OF HIGH YIELD OF RECOMBINANT PROTEINS” (UNIVERSITY OF MARYLAND, COLLEGE PARK, priority 2021, published 2023)

Experiments:
E. coli pAHL-GMCSF = test: AHL-induced porin formation and release of dsRedExpressII from E. coli pAHL-GMCSF; assay type: cell-based, Escherichia coli; conditions: about
Experimental: Protein secretion analysis. The target proteins DsRedExpress2 and GMCSF were analyzed. The supernatants of sample aliquots were recovered after centrifugation (6000 g, 2 min) to separate bacteria and subdivided fluorescence analysis (stored chilled) or immunoassaying (stored frozen). The relative fluorescence intensity of samples was measured using a BioTek Synergy platereader to determine DsRedExpress2 levels; additional quantification to correlate fluorescence to protein concentration was performed using a Bioanalyzer 2100 (Agilent Technologies, Santa Clara, Calif.). The His-tagged GMCSF peptide was quantified using a His Tag ELISA Detection Kit (GenScript) according to the provided protocol and 5-10 fold dilutions of frozen samples.

CCCCCCCCCC(=O)CC(=O)N[C@H]1CCOC1=O [AHL, N-3-oxo-dodecanoyl-L-Homoserine lactone] was tested. Which “inducer concentration in solution” value (E. coli pAHL-GMCSF) did it give?
The value was 100-500 nM of AHL.

With OO [peroxide, hydrogen peroxide] as the compound, how does the “induction threshold required to achieve saturated protein expression” value (OxyR / PoxyS promoter) read?
The value was 25 µM.

And the “peroxide tolerated with negligible effect on cell viability” value (E. coli)?
The value was “up to 100 μM”.

And the benign induction range (E. coli; in agreement with previous reports)?
Its benign induction range is 0 to 100 µM.
